Measured values published in patent US20040214893A1, “Gabapentin compositions” (priority 2003, published 2004).

Assay: pH of aqueous solution of the crystalline salt
Format: physicochemical
Conditions: 14.00 mg crystalline salt in 140 microliters of water
Experimental: Gabapentin (0.55857 g) and ethanedisulfonic acid (0.62940 g) were transferred into a 20 mL scintillation vial. Water (1.5 mL) was added and the mixture was heated to 85 deg. C. to dissolve all of the solids. The solution was filtered through a 0.2 micron filter into a new 20 mL scintillation vial. The vial was capped and placed in the refrigerator (2-4 deg. C.) for 2 hours. The resulting crystals were collected by vacuum filtration (345.83 mg) and analyzed by PXRD. Upon analysis, the crystals were determined to be gabapentin ethanedisulfonic acid salt. A small amount of the crystalline salt (14.00 mg) was weighted into a 3 mL vial and 140 microliters of water was added. The pH of the resulting solution was determined to be 1.2. […] The salt can be characterized by any one, any two, any three, any four, any five, or any six or more of the peaks in FIG. 13 including, but not limited to, 6.0, 11.51, 15.11, 16.17, 17.31, 17.85, 19.73, 20.19, 22.21, 24.63, 26.73, and 28.47 degrees 2-theta.

Substance: gabapentin ethanedisulfonic acid salt
- pH of the resulting solution: 1.2
